# Measurements as given in PubChem BioAssay (NCI).
# Several values for one entry are separate records, joined by “and”; a condition that tells them apart may be missing. Equal entries are not always repeated.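 Where inhibition never reached the appropriate level, the endpoint shown equals the highest concentration tested. Otherwise, values were interpolated linearly from a five-concentration, 48-hour dose response in 96-well plates. GI50 = concentration required for 50% inhibition of growth. TGI is the concentration that stops growth completely.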
# Key:
# Assay in all cases: DTP human tumour cell line panel, 48 h
# A549 NSCLC = test system: A549 NSCLC
# BT-549 breast = test system: BT-549 breast
# HCC-2998 colon = test system: HCC-2998 colon
# HT29 colon = test system: HT29 colon
# NCI-H226 lung = test system: NCI-H226 lung
# NCI-H522 lung = test system: NCI-H522 lung
# SK-MEL-5 melanoma = test system: SK-MEL-5 melanoma
# SNB-19 CNS = test system: SNB-19 CNS
# RXF 393 renal = test system: RXF 393 renal
# T-47D breast = test system: T-47D breast
SMILES,GI50 (A549 NSCLC) [µM],TGI (A549 NSCLC) [µM],GI50 (BT-549 breast) [µM],GI50 (HCC-2998 colon) [µM],TGI (HCC-2998 colon) [µM],GI50 (HT29 colon) [µM],GI50 (NCI-H226 lung) [µM],TGI (NCI-H522 lung) [µM],GI50 (SK-MEL-5 melanoma) [µM],TGI (SK-MEL-5 melanoma),GI50 (SNB-19 CNS) [µM],TGI (SNB-19 CNS) [µM],TGI (HT29 colon) [µM],TGI (NCI-H226 lung) [µM],TGI (RXF 393 renal) [µM],TGI (BT-549 breast) [µM],GI50 (RXF 393 renal) [µM],GI50 (T-47D breast) [µM],TGI (T-47D breast) [µM]
COc1cc(C(=O)c2cnc(-c3c[nH]c4cccc(C)c34)[nH]2)cc(OC)c1OC,0.0109,> 100,0.0204,0.0183,29.4,0.00643,0.00485,0.0224,0.00365,0.0221 µM and 0.0366 µM,0.00505,> 100,,,,,,,
COc1ccc(/C=C/C(=N\NC(=O)c2ccccc2)c2sc(Nc3ccc([N+](=O)[O-])cc3)nc2C)cc1OC,,28.9,,,> 100,,,17.4,,,,32.5,> 100,44.7,52.5,,,,
CC(C)c1ccc(O)c(Cc2cc(C(C)C)cc(Cc3cc(C(C)C)ccc3O)c2O)c1,,3.96,,,3.2,,,2.92,,3.15 µM,,3.12,4.28,2.93,,,,,
FC(F)(F)c1ccccc1C1SCc2nc3ccccc3n21 (centres undefined),,> 100,,,> 100,,,> 100,,,,> 100,> 100,> 100,> 100,,,,
CCOc1ccc(NC(=O)CC2SC(=Nc3ccc(C)cc3)NC2=O)cc1 (centres undefined),,> 100,,,,,,> 100,,> 100 µM,,> 100,> 100,,> 100,,,,
NC(=NCCCCCCN=C(N)/N=C(\N)Nc1ccc(Cl)cc1)/N=C(\N)Nc1ccc(Cl)cc1,1.05,5.3,1.52,1.8,6.33,1.62,1.79,,0.908,1.73 µM,1.46,5.97,5.18,9.12,8.11,4.24,1.88,1.71,7.72
Cc1cc(NCCCCCCCNc2cc(C)nc3cc(N)ccc23)c2ccc(N)cc2n1,,> 100,,,> 100,,,81.5,,> 100 µM,,> 100,> 100,78.4,> 100,,,,
CCOc1ccc2nc(NC(=O)C(=O)C3C(=O)C(CC4C(=O)c5ccccc5C4=O)C(=O)CC3(C)C)sc2c1 (centres undefined),,> 100,,,> 100,,,> 100,,> 100 µM,,> 100,> 100,> 100,> 100,> 100,,,
Nc1nc(SCc2ccccc2CCl)c2[nH]cnc2n1,,,13.7,18.8,33.3,17.1,17.1,,10.8,23.7 µM,15.8,35.5,35.6,34.4,28.7,29.6,14,15.6,52.3
O=C1/C(=C/c2ccc(Cl)cc2)CCC1CNc1ccc(Cl)cc1 (centres undefined),,38.1,,,21.6,,,3.89,,22 µM,,35.7,41.1,98,26.4,65.3,,,
